Experimental data reported in patent US5792766A (priority 1996, dated 1998).
Structures can show the parent of a compound that is named as a salt.

Target: GABAa receptor
Assay: GABAa receptor activity: inhibition of 3H-RO15-1788 (3H-Flumazenil) binding to rat cortical tissue
Conditions: 0.5 nM 3H-RO15-1788, 30 min at 4° C.
Protocol: The pharmaceutical utility of compounds of this invention are indicated by the following assay for GABAa receptor activity.
The assay is carried out as described in Thomas and Tallman (J. Bio. Chem. 156: 9838-9842, J. Neurosci. 3:433-440, 1983). Rat cortical tissue is dissected and homogenized in 25 volumes (w/v of 0.05M Tris HCl buffer (pH 7.4 at 4° C.). The tissue homogenate is centrifuged in the cold (4° C.) at 20,000×g for 20 minutes. The supernatant is decanted and the pellet is rehomogenized in the same volume of buffer and again centrifuged at 20,000×g. The supernatant is decanted and the pellet is frozen at -20° C. overnight. The pellet is then thawed and rehomogenized in 25 volume (original w/v) of buffer and the procedure is carried out twice. The pellet is finally resuspended in 50 volumes (w/v) of 0.05M Tris HCl buffer (pH 7.4 at […]).
Incubation contain 100 of tissue homogenate, […] of radioligand (0.5 nM ^3 H-RO15-1788 [^3 H-Flumazenil] specific activity 80 Ci/mmol), drug or blocker and buffer to a total volume of […]. Incubstion are carried for 30 min at 4° C. then are rapidly filtered through GFB filters to separate free and bound ligand. Filters are washed twice with fresh 0.05M Tris HCl buffer (pH 7.4 at 4° C.) and counted in a liquid scintillation counter. 1.0 mM diazepam is added to some tubes to determine nonspecific binding. Data are collected in triplicate determinations, averaged and % inhibition of total specific binding is calculated. Total Specific Binding=Total-Nonspecific. In some case, the amounts of unlabeled drugs is varied and total displacement curves of binding are carried. Data are converted to a form for the calculation of Ki and Hill Coefficient (nH).

Structure (SMILES)	Ki [nM]
COc1ccc(-c2ncc3n2CN(C(=O)N2CCCCC2)c2ccccc2-3)cc1 [Compound 1, 3-(4-methoxyphenyl)-5,6-dihydro-6-[(1-piperidino)carbonyl]imidazo[1,5-c]quinazoline]	6
COc1ccc(-c2ncc3n2CN(C(=O)N(C)C)c2ccccc2-3)cc1 [Compound 2, 3-(4-Methoxyphenyl)-5,6-dihydro-6-[(N,N-dimethyl-amino)carbonyl]imidazo[1,5-c]quinazoline hydrochloride]	4.7
COc1ccc(-c2ncc3n2CN(C(=O)N2CCOCC2)c2ccccc2-3)cc1 [Compound 3, 3-(4-Methoxyphenyl)-5,6-dihydro-6-[(1-morpholino)-carbonyl]imidazo[1,5-c]quinazoline hydrochloride]	2.7
COc1cccc(-c2ncc3n2CN(C(=O)N2CCCCC2)c2ccccc2-3)c1 [Compound 16, 3-(3-Methoxyphenyl)-5,6-dihydro-6-[(1-piperidino)-carbonyl]imidazo[1,5-]quinazoline hydrochloride]	17
O=C(N1CCCCCC1)N1Cn2c(cnc2-c2ccccc2)-c2ccccc21 [Compound 18, 3-Phenyl-5,6-dihydro-6-[(1-hexamethyleneimino)-carbonyl]imidazo[1,5-c]quinazoline hydrochloride]	12
COc1ccc(-c2ncc3n2CN(C(C)=O)c2ccccc2-3)cc1 [Compound 49, 3-(4-methoxyphenyl)-5,6-dihydro-6-acetylimidazo[1,5-c]-quinazoline]	101
COc1ccc(-c2ncc3n2CN(C(=O)c2ccccc2)c2ccccc2-3)cc1 [Compound 53, 3-(4-Methoxyphenyl)-5,6-dihydro-6-benzoylimidazo-[1,5-c]quinazoline]	7.8
COc1ccc(-c2ncc3n2CN(C(=O)c2ccccc2)c2ccccc2-3)c(F)c1 [Compound 72, 3-(2-Fluoro-4-methoxyphenyl)-5,6-dihydro-6-benzoyl-imidazo[1,5-c]quinazoline]	9.7
CCn1c(=O)n2c(-c3ccccc3F)ncc2c2ccccc21 [Compound 76, 3-(2-Fluorophenyl)-5,6-dihydro-5-oxo-6-ethyl-imidazo[1,5-c]quinazoline]	124
